The term EC50 denotes the midpoint of the concentration-response curve. High values mean lower potency in that assay, low ones higher potency in that assay.

The test system of one test is S. epidermidis 49461. The test is described as follows: Antibiotic repotentiation (oxacillin MIC with/without compound). The test is classed as cell-based, Staphylococcus epidermidis. As to conditions: +50 μM compound, S. epidermidis 49461. As to the method:
The overnight culture was diluted into fresh CAMHB to a concentration of 5×10^5 CFU/ml. […] On the same plate, a standard microdilution MIC with the tested antibiotics and no added compound was also performed to compare the antibiotic MIC in the presence and absence of compound. […] Fold reductions were calculated by dividing the MIC of the antibiotic without compound by the MIC of the antibiotic in the presence of compound.
Antibiotic potentiation in S. epidermidis was also investigated.

Test [1] has as its system S. aureus USA300 pre-formed biofilm. Description: Biofilm dispersion assay. Type of test: cell-based. As to conditions: Staphylococcus aureus, S. aureus USA300 (MRSA). As to the method: (§1) Overnight cultures of S. aureus or S. epidermidis were subcultured to an OD600 of 0.01 in tryptic soy broth supplemented with 0.5% glucose (TSBG). For USA300Δ/+stk1, TSBG was supplemented with 0.2% xylose to induce transcription of stk1. 100 μl of the culture was distributed into rows 2-11 of a 96-well polyvinylchloride plate. Rows 1 and 12 were filled with 100 μl of sterile water and served as the negative controls. […] After the incubation period, the media was discarded and the plates were washed with water to remove non-adherent cells. Media containing the desired concentrations of compound was prepared and 100 μl was added to the desired rows. Media alone was added as a positive control and sterile water was added as a negative control. The plates were sealed with Glad Press-n-Seal and incubated under stationary conditions for another 24 hours. The media was discarded and plates were washed with water to remove any non-adherent bacteria. 110 μl of an aqueous crystal violet solution (0.1%) was added to each well and allowed to rest at room temperature to stain any biomass. After 30 minutes, the crystal violet solution was discarded and the plates were washed with water. The stained biomass was dissolved in 95% ethanol (200 μl) for 30 minutes and 125 μl was transferred to the corresponding wells of a flat-bottomed polystyrene 96-well plate. The absorbance of each well was measured at 540 nm. The wells that contained only water were used as background and subtracted from wells containing cultures.
(§2) Biofilm dispersion was quantified by calculating the ratio of the absorbance of the treated wells as compared to the untreated wells. These values were plotted and fit to a curve to determine the EC50.
(§3) Loratadine was also tested for the ability to disperse pre-formed biofilms. Biofilm dispersion is reported as an EC50, which is defined as the concentration of compound required to disperse 50% of the preformed biofilm.

For test [2], the system named is S. aureus 29213 pre-formed biofilm. Description: Biofilm dispersion assay. The test is classed as cell-based. As to conditions: Staphylococcus aureus. How it is done:
as §1, §2, §3

For test [3], the system named is S. aureus 43300 pre-formed biofilm. Description: Biofilm dispersion assay. The test is classed as cell-based. The settings on record: Staphylococcus aureus, S. aureus 43300 (MRSA). How it is done: as §1, §2, §3
Test [4] concerns S. aureus USA100 pre-formed biofilm. The test is described as follows: Biofilm dispersion assay. Type of test: cell-based. The settings on record: Staphylococcus aureus, S. aureus USA100 (MRSA). As to the method: as §1, §2, §3

For the compound `CCOC(=O)N1CCC(=C2c3ccc(Cl)cc3CCc3cccnc32)CC1` [Loratadine, ethyl 4-(8-chloro-5,6-dihydrobenzo[1,2]cyclohepta[2,4-b]pyridin-11-ylidene)piperidine-1-carboxylate], in the test with S. epidermidis 49461, the “Oxacillin MIC” value was found to be 16 µg/mL. Further, in the test with S. epidermidis 49461 (oxacillin MIC), the “Fold Reduction” value was 1. The EC50 was above 200 µM in test [1], above 200 µM in test [2], above 200 µM in test [3] and 121 µM in test [4].

The record behind these values is patent US12115208B2, “Small-molecule adjuvants for antibiotics to address antibiotic resistance” (HIGH POINT UNIVERSITY, priority 2017, dated 2024).
